Common to all, as to settings: Example 13 oxidoreductase panel (FIG. 7)
In assay [1] the target is T1, lactate dehydrogenase (LDH) (Oryctolagus cuniculus, UniProt P13491).
T1 construct: 10 μl of LDH from Rabbit Muscle; from tissue; host or cells: rabbit muscle
As to the kind of experiment: LDH kinetic assay, spectrophotometric oxidation of NADH at 340 nm. The class given is biochemical, Rabbit Muscle. On the procedure: For LDH analysis, the compounds were screened using a kinetic protocol that spectrophotometrically evaluates oxidation of NADH.
(§1) Stock solutions of each of the reagents were prepared in the following concentrations. Dilutions of the stock solutions were prepared prior to running the assay in the concentrations indicated below.
The LDH reaction was monitored at 340 nm prior to and after addition of the inhibitor to detect background reaction with the inhibitor. Solutions of 100 μl of the inhibitors in DMSO were prepared to provide a final DMSO concentration of 5% of the total assay volume. These solutions were incubated for 6 minutes at 25° C. in a 990 μl of a solution containing 0.1 M HEPES, pH 7.4, 10 μM NADH, and 2.5 mM of pyruvate. The reaction was then initiated with 10 μl of LDH from Rabbit Muscle (0.5 μg/ml; 1:2000 dilution of 1.0 mg/ml). After the enzyme was added, the solution was mixed for 20 seconds, and the reaction was run for 10 minutes. After a 50 second lag, the samples were read in a Cary spectrophotometer at 340 nm. Reading of the samples was continued until 300 seconds. Cuvette #1 contained the control reaction (no inhibitor), and cuvette #2 contained the positive control reaction in which Cibacron Blue at 10.3 μM was substituted for inhibitor to yield 50 to 70% inhibition. The substrate was kept at a level at least 10 times the Km.

The target in assay [2] is T2, HMG CoA reductase (HMGCoAR) (UniProt P04035).
T2 sequence (P04035 1-888): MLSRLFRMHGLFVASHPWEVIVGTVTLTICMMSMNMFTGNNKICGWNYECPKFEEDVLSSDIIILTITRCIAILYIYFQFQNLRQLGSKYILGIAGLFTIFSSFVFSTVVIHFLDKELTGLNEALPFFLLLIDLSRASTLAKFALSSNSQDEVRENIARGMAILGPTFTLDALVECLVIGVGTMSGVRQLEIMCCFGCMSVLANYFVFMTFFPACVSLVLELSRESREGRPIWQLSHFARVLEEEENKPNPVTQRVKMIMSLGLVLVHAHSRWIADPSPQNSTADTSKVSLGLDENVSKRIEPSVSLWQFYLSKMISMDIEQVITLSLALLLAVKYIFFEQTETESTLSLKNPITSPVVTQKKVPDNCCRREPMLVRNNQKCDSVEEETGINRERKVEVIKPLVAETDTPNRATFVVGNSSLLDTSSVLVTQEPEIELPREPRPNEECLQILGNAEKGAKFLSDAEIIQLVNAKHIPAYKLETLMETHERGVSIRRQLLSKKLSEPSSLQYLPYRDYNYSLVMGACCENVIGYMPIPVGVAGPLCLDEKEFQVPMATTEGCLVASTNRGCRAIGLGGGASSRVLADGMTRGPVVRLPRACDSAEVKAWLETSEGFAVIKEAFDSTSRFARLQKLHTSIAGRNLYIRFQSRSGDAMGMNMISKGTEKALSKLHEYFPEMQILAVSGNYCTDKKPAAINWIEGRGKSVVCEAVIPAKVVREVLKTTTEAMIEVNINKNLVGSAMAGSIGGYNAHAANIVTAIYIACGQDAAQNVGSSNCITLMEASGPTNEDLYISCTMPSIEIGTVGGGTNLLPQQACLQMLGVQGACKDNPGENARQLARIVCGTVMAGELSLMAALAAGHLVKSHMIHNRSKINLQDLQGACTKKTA
The experiment in a line: HMGCoAR kinetic assay, spectrophotometric oxidation of NADPH at 340 nm. The class given is biochemical. As for the experimental part: For HMGCoAR analysis, the compounds were screened using a kinetic protocol that spectrophotometrically evaluates oxidation of NADPH.
Stock solutions of each of the reagents were prepared in the following concentrations. Dilutions of the stock solutions were prepared prior to running the assay in the concentrations indicated below. The enzyme was diluted in 1 M NaCl. To prepare the dilution buffer, 10 μl of HMGCoAR (1 mg/ml) was mixed with 133 μl of 3 M NaCl solution and 257 μl of 25 mM KH2PO4 buffer (pH 7.5; containing 50 mM NaCl, […] EDTA (ethylenediaminetetraacetic acid), and 5 mM DTT (dithiothreitol).
The HMGCoAR reaction was monitored at 340 nm prior to and after addition of the inhibitor to detect background reaction with the inhibitor. Solutions of 100 μM of the inhibitors in DMSO were prepared to provide a final DMSO concentration of 2% of the total assay volume. These solutions were incubated for 6 minutes at 25° C. in a 994 μl of a solution containing 25 mM KH2PO4, pH 7.5, 160 μM HMGCoA, 13 μM NADPH, 50 mM NaCl, 1 mM EDTA, and 5 mM DTT. The reaction was then initiated with 5 μl of HMGCoAR enzyme (1:40 dilution of 0.65 mg/ml). After the enzyme was added, the solution was mixed for 20 seconds, and the reaction was run for 10 minutes. After a 50 second lag, the samples were read in a Cary spectrophotometer at 340 nm. Reading of the samples was continued until 300 seconds. […]

The target of assay [3] is Human Aldose Reductase (AR) (Homo sapiens, UniProt P15121). The experiment in a line: AR kinetic assay, spectrophotometric measurement of enzyme activity at 340 nm. In kind it is biochemical. On the procedure:
For AR analysis, the compounds were screened using a kinetic protocol that spectrophotometrically measures enzyme activity.
as §1
The AR reaction was monitored at 340 nm prior to and after addition of the inhibitor to detect background reaction with the inhibitor. Solutions of 100 μl of the inhibitors in DMSO were prepared to provide a final DMSO concentration of 5% of the total assay volume. These solutions were incubated for 5 minutes at 25° C. in a 990 μl of a solution containing 100 mM potassium phosphate, pH 7.5, 0.3 M ammonium sulfate, 1.0 mM ethylenediaminetetraacetic acid (EDTA), 3.8 μM B-Nicotinamide adenine dinucleotide phosphate (NADPH), 171 μM DL-glyceraldehyde and 0.1 mM DL-dithiothreitol. The reaction was then initiated with 10 μl of Human Aldose Reductase (1:5 dilution of 0.55 mg/ml). After the enzyme was added, the solution was mixed for 20 seconds, and the reaction was run for 10 minutes. After a 50 second lag, the samples were read in a Cary spectrophotometer at 340 nm. Reading of the samples was continued until 300 seconds. The final DMSO concentration in the cuvette was 5%. […]

A word on the IC50: it is the midpoint of a concentration-inhibition curve. The low end stands for inhibition by little substance, the high end for a need for much substance. In assay [1], `O=C(O)c1ccc(-c2ccc(-c3nc4cc([N+](=O)[O-])ccc4[nH]3)o2)cc1` [compound 6d, 4-[5-(5-nitro-1H-benzoimidazol-2-yl)-furan-2-yl]-benzoic acid] registered a half-maximal inhibitory concentration (IC50) of 4.56 µM. For the compound `O=C(O)c1ccc(-c2ccc(-c3nc4ccccc4[nH]3)o2)cc1` [compound 6b, 4-[5-(1H-benzoimidazol-2-yl)-furan-2-yl] benzoic acid], the IC50 in assay [2] was 22 µM; in assay [3] it was 35 µM.

These data come from patent US20030104473A1, “Common ligand mimics: benzimidazoles” (priority 2001, published 2003).
